The results in this text go back to patent US5219741A, “Method of making L-proline using an N-acyl-L-protine acylase” (priority 1990, dated 1993).

Entries after “also recorded” stand apart in the source; their conditions may differ. Like-named read-outs stand apart in the source and are kept apart here.

Assay type in all cases: biochemical, Comamonas testosteroni DSM 5416
In assay [1] the test system is 1,10-phenanthroline-inactivated acylase (apoenzyme). Kind of assay: Influence of cations on the 1,10-phenanthroline-inactivated acylase. Particulars: for Influence on the apoenzyme (in words): 1,10-phenanthroline-inactivated acylase. How it is done:
FPLC/Mono Q purified enzyme was incubated for 24 hours at 4° C. in the presence of 1 mM 1,10-phenanthroline. Subsequently, enzyme and the chelating agent 1,10-phenanthroline were separated by gel filtration via Sephadex G-25M (PD-10, firm Pharmacia/LKB, Uppsala, Sweden). The enzyme-containing fractions were combined and the activity determined without and in the presence of various cations (1 mM).

Assay [2] relates to N-acyl-L-proline acylase. Particulars: for Activity (%): no agent = 100. How it is done: The enzymatic reaction was interrupted by pipetting 50 μl of the enzyme sample into 1.25 ml 100% acetic acid. Subsequently, 0.45 ml 0.1M tris-HCl buffer pH 7.0 and 1.25 ml ninhydrin reagent (3 g ninhydrin dissolved by heating in a mixture of 60 ml 100% acetic acid and 40 ml 6M phosphoric acid) were added. The ninhydrin reagent was freshly prepared daily. The test tubes were loosely closed with screw-on caps, incubated 30 minutes at 100° C. and subsequently cooled down in an ice bath.
The L-proline, liberated by the enzymatic hydrolysis, forms a red dye with ninhydrin at 100° C. The absorption of the red dye was measured in a spectrophotometer at 480 nm relative to a control batch without crude extract (=substrate blank). The concentration of the L-proline produced was determined using a straight calibration line with L-proline in a range of 5 to 100 nmoles per 50 μl specimen. The enzyme activity was indicated in international units; thus, one unit (U) corresponded to an amount of 1 μmole L-proline produced per minute.
The influence of various chemical agents as well as metal cations and anions on the reaction speed of the hydrolytic splitting of N-acetyl-L-proline was determined at 30° C. in a reaction batch with the following composition: […]
The enzyme was pre-incubated for 10 minutes at 30° C. with the compound before the addition of substrate to start the reaction.
The enzyme was pre-incubated for 10 minutes at 30° C. with the agent before the substrate was added to start the reaction.
The enzyme was pre-incubated 10 minutes at 30° C. with the agent before the substrate was added to start the reaction. The concentration of the anions was 10 mM in each instance.

Assay [3] has as its system N-acyl-L-proline acylase. Kind of assay: Stereospecificity of hydrolysis of N-acetyl-D,L-proline. The following applies: for L-proline (mmol/l) produced: substrate 10 mmol/l, two hours at 30° C., pH 7.0. How it is done:
The hydrolysis of N-acyl-L-proline, N-acetyl-D,L-proline and N-acetyl-D-proline was determined in the following reaction mixture:
The reaction mixture was incubated for two hours at 30° C. and the L-proline produced was determined by amino acid analysis as in Example 10.

For assay [4], the system named is N-acyl-L-proline acylase. Kind of assay: Substrate specificity: hydrolysis of N-acyl amino acids and proline derivatives. The method, then: The activity of acylase was determined with various N-acetyl-L-amino acids and N-chloroacetyl-L-amino acids in a reaction batch with the following composition:
The reaction temperature was 30° C. and the incubation time 15 minutes to 24 hours. 0.2 ml samples of the reaction batch in each instance were mixed at different times with 0.2 ml 10% (w/v) trichloroacetic acid and the denatured protein centrifuged off for 10 minutes at 11,000 rpms in a table centrifuge. The supernatant was diluted with a 0.1M Na citrate buffer pH 2.2 with 25% (v/v) 2.2-thiodiethanol and 0.1% (v/v) phenol 1:5 and 1:50 respectively. The amino acids released were quantitatively detected by an amino-acid analyzer LC 5001 of the firm Biotronic, Maintal, Federal Republic of Germany. In Table 16, the substrates marked with * and the corresponding products were quantified by means of HPLC.
The activity of the acylase was determined with various proline derivatives as under a).

Setting [5] is: inactivated enzyme after gel filtration + cation 1 mM, native enzyme = 100, no agent = 21.
Setting [6] is: metal cation salt 1 mM, native enzyme.
[7] abbreviates: metal cation salt 10 mM, native enzyme.

For `[Cl-].[Cl-].[Sr+2]` [SrCl2], the “Activity (%)” value was 23% in assay [1] (setting [5]), 104% with N-acyl-L-proline acylase [2] (setting [6]) and 100% in the assay with N-acyl-L-proline acylase [2] (setting [7]).
With `O=S(=O)([O-])[O-].[Zn+2]` [ZnSO4], the “Influence on the apoenzyme (in words)” value in assay [1] is listed as “activating action”. Also, the “Activity (%)” value in assay [1] (setting [5]) was 54%; in the assay on N-acyl-L-proline acylase [2] (setting [6]), 77%; with N-acyl-L-proline acylase [2] (setting [7]) it was 32%. The “Influence on the acylase activity (in words)” value in the assay on N-acyl-L-proline acylase [2] (native enzyme) is “inhibiting action”.
With `[Cl][Cd][Cl]` [CdCl2], the “Activity (%)” value in assay [1] (setting [5]) came out at 20%; in the assay with N-acyl-L-proline acylase [2] (setting [6]) it was 89%; with N-acyl-L-proline acylase [2] (setting [7]), 65%. Besides, the “Influence on the acylase activity (in words)” value in the assay on N-acyl-L-proline acylase [2] (native enzyme) is reported as “inhibiting action”.
As to `O=S(=O)([O-])[O-].[Fe+2]` [FeSO4], the “Activity (%)” value in assay [1] (setting [5]) was found to be 12%; in the assay with N-acyl-L-proline acylase [2] (setting [6]), 20%.
For the compound `[Cl][Mn][Cl]` [MnCl2], the “Activity (%)” value in assay [1] (setting [5]) stood at 23%; with N-acyl-L-proline acylase [2] (setting [6]), 104%; with N-acyl-L-proline acylase [2] (setting [7]), 103%.
As to `[Ba+2].[Cl-].[Cl-]` [BaCl2], the entries for the “Activity (%)” value (in assay [1] (setting [5]); in the assay on N-acyl-L-proline acylase [2] (setting [6]); in the assay on N-acyl-L-proline acylase [2] (setting [7])) were 18%, 100% and 99%, respectively.
`[Cl][Fe]([Cl])[Cl]` [FeCl3]: the “Activity (%)” value is 5% in assay [1] (setting [5]), 83% in the assay with N-acyl-L-proline acylase [2] (setting [6]) and 58% in the assay on N-acyl-L-proline acylase [2] (setting [7]).
For `CC(=O)N1CCCC1C(=O)O` (racemic) [N-acetyl-D,L-proline], the “L-proline (mmol/l) produced” value with N-acyl-L-proline acylase [3] was found to be 4.82 mmol/L.
As for `[Cl][Hg][Cl]` [HgCl2], the “Influence on the apoenzyme (in words)” value in assay [1] is on record as “inhibited”. Further, the “Activity (%)” value in assay [1] (setting [5]) was 6%; with N-acyl-L-proline acylase [2] (setting [6]), 67%; with N-acyl-L-proline acylase [2] (setting [7]) it was 9%. Moreover, in the assay on N-acyl-L-proline acylase [2] (native enzyme), the “Influence on the acylase activity (in words)” value is reported as “inhibiting action”.
With `CC(=O)N1CCC[C@@H]1C(=O)O` [N-acetyl-D-proline], in the assay with N-acyl-L-proline acylase [4], the “Hydrolysis by the acylase (in words)” value is “not hydrolized”. In addition, the “Relative Activity (%)” value in the assay with N-acyl-L-proline acylase [4] (proline derivatives, 30° C., pH 7.0, N-acetyl-L-proline = 100%) turned out to be 0%. Besides, in the assay on N-acyl-L-proline acylase [3], the “Stereospecific hydrolysis (in words)” value is listed as “not” and the “L-proline (mmol/l) produced” value was less than 0.01 mmol/L.
In the case of `[Cl][Sn][Cl]` [SnCl2], the “Influence on the apoenzyme (in words)” value in assay [1] is “inhibited”. Moreover, the figures for the “Activity (%)” value (in assay [1] (setting [5]); in the assay on N-acyl-L-proline acylase [2] (setting [6]); in the assay on N-acyl-L-proline acylase [2] (setting [7])) were 10%, 72% and 55%, respectively. The “Influence on the acylase activity (in words)” value with N-acyl-L-proline acylase [2] (native enzyme) is reported as “inhibiting action”.
Turning to `c1cnc2c(c1)ccc1cccnc12` [1,10 phenanthroline, 1,10-phenanthroline], the “Activity (%)” value in assay [1] (enzyme incubated 24 hours at 4° C. with 1 mM 1,10-phenanthroline, before gel filtration, native enzyme = 100) worked out at 2%; with N-acyl-L-proline acylase [2] (chemical agent 1 mM, 10 min pre-incubation at 30° C.), 27%; with N-acyl-L-proline acylase [2] (chemical agent 10 mM, 10 min pre-incubation at 30° C.), 1%. The “Influence on the acylase activity (in words)” value in the assay on N-acyl-L-proline acylase [2] (native enzyme) was “inhibiting action; also recorded: significantly inhibit”.
On to `[Cl-].[Cl-].[Mg+2]` [MgCl2], for which the “Activity (%)” value in assay [1] (setting [5]) is 25%; in the assay on N-acyl-L-proline acylase [2] (setting [6]) it was 106%; in the assay with N-acyl-L-proline acylase [2] (setting [7]), 99%.
Take `O=S(=O)([O-])[O-].[Cu+2]` [CuSO4]: in assay [1], the “Influence on the apoenzyme (in words)” value is recorded as “inhibited”. In addition, the “Activity (%)” value in assay [1] (setting [5]) came to 6%; in the assay with N-acyl-L-proline acylase [2] (setting [6]) it was 61%; with N-acyl-L-proline acylase [2] (setting [7]), 19%. For the same compound, the “Influence on the acylase activity (in words)” value in the assay on N-acyl-L-proline acylase [2] (native enzyme) is given as “inhibiting action”.
Regarding `[Ca+2].[Cl-].[Cl-]` [CaCl2], the “Activity (%)” value was found to be 17% in assay [1] (setting [5]), 100% in the assay on N-acyl-L-proline acylase [2] (setting [6]) and 91% with N-acyl-L-proline acylase [2] (setting [7]).
For `O=[N+]([O-])[O-].O=[N+]([O-])[O-].[Ni+2]` [Ni(NO3)2], the “Activity (%)” value in assay [1] (setting [5]) came to 21%; in the assay with N-acyl-L-proline acylase [2] (setting [6]), 94%; with N-acyl-L-proline acylase [2] (setting [7]), 75%.
Consider `[Cl-].[Cl-].[Co+2]` [CoCl2], for which, in assay [1], the “Influence on the apoenzyme (in words)” value is on record as “activating action”. The “Activity (%)” value in assay [1] (setting [5]) was 80%; in the assay on N-acyl-L-proline acylase [2] (setting [6]), 103%; in the assay on N-acyl-L-proline acylase [2] (setting [7]) it was 92%.
